Columns and labels:
mouse hepatocytes = assay: Metabolic stability in mouse hepatocytes; assay type: in vitro ADME; settings: 1 μM
Experimental: (§1) Hepatocytes of humans (#X008001), dogs (#M00205), rats (#M00005), and mice (#M005052) were purchased from BioIVT, NY, USA. Monkey hepatocytes were procured from RILD, Shanghai, China. The metabolic stability of ZB716 in human, monkey, dog, rat and mouse hepatocytes was investigated by incubating ZB716 with human, monkey, dog, rat, and mouse hepatocytes (0.5 × 10^6 cells/mL), or with incubation medium only.
(§2) parent disappearance vs. incubation time curve.
(§3) Scaled-up Clint = kV/N × Scaling Factor
(§4) metabolite formed during the reaction.

[1] = Metabolic stability in mouse hepatocytes; assay type: in vitro ADME
Experimental: as §1, §2, §3, §4

CYP2D6 = CYP2D6 (Homo sapiens, UniProt P10635); assay: CYP inhibition in human liver microsomes, CYP2D6; assay type: in vitro ADME; settings: HLM, marker substrate Dextromethorphan
CYP2D6, sequence (P10635 whole entry): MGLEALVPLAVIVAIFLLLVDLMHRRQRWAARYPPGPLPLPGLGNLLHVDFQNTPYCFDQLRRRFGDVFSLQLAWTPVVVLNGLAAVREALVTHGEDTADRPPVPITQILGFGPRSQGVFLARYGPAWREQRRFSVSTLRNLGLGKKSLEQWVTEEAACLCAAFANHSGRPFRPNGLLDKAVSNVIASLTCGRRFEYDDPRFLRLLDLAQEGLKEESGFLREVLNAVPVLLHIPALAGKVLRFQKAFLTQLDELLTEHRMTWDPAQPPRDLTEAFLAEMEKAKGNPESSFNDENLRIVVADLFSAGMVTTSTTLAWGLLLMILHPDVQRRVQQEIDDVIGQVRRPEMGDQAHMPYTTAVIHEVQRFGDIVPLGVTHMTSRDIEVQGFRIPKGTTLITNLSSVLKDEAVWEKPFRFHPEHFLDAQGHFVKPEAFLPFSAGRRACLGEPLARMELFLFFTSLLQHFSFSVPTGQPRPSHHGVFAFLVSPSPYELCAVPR
Experimental: . The inhibition of CYP2B6 and 3A4 (when midazolam was used as the substrate) by ZB716 was not observed. The inhibitory potential of ZB716 on human CYP enzyme activities appears relatively low.
The final concentrations of ZB716 in the incubation system were 0, 0.05, 0.15, 0.5, 1.5, 5, and 15 µM (final organic solvent concentration ≤ 1%). […] . […] The concentrations of the isoform-specific metabolites derived from marker substrates were measured by UPLC–MS/MS. The IC50 values were calculated from the percentages of the rate of the metabolite formation relative to non-inhibited controls vs. the concentrations of ZB716 or positive control inhibitors. All incubations were performed in triplicate. The mean of the enzyme activity (% of non-inhibited control) for each concentration was plotted against the log inhibitor concentration, and fitted to an IC50 curve.

[2] = Plasma protein binding by equilibrium dialysis, monkey; assay type: in vitro ADME; settings: plasma (EDTA-K2 as anticoagulant)
Experimental: (§5) The in vitro binding of ZB716 to plasma proteins was determined by equilibrium dialysis technique in mouse, rat, dog, monkey, and human plasma (EDTA-K2 as anticoagulant), over the concentration range of 0.1–10 μM. The free concentration of ZB716 was below the lower limit of quantitation at 0.1, 1, and 10 μM in human, monkey, dog, rat, and mouse plasma.
(§6) The equilibrium dialysis method was used to investigate the in vitro binding of ZB716 to human, monkey, dog, rat, and mouse plasma proteins. The dialysis phosphate buffer solution (100 mM, pH 7.4) and plasma samples containing 0.1, 1, and 10 μM of ZB716 were added to separate chambers of dialysis wells of the HTDialysis device. The dialysis plate was placed in an incubator at 37 °C with 5% CO2 at approximately 100 rpm for 6 h. After incubation, the seal was removed, and 50 μL each of post-dialysis samples was pipetted from both the buffer and plasma chambers into fresh 96-well plates. The samples were analyzed via UPLC–MS/MS. The bound fraction, unbound fraction, recovery (%), and remaining (%) were calculated by Equations (2)–(5):%Unbound = (Conc.buffer chamber/Conc.plasma chamber) × 100(2) %Bound = 100% − %Unbound (3) %Recovery = (Conc.buffer chamber + Conc.plasma chamber)/Conc.Total sample × 100 (4) %Remaining = Conc.6h/Conc.0h × 100 (5)

monkey plasma proteins = assay: as above; assay type: in vitro ADME; settings: for Remaining: 6 h
Experimental: as §5, §6

CYP2C9 = CYP2C9 (Homo sapiens, UniProt P11712); assay: CYP phenotyping, recombinant CYP2C9
CYP2C9, sequence (P11712 whole entry): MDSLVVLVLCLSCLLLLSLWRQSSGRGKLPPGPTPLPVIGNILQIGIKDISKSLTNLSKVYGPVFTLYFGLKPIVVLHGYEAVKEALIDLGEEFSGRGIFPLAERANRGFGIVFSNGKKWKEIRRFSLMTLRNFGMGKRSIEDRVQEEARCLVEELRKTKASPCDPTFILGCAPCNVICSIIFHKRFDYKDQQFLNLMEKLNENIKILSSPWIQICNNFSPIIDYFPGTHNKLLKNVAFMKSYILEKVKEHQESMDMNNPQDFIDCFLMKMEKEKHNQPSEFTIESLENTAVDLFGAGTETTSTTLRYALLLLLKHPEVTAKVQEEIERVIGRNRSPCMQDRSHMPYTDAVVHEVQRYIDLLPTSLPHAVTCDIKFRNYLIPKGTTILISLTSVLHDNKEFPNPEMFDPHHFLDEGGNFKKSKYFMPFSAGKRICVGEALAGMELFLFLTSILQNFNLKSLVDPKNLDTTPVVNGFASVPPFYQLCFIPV

C[C@]12CC[C@@H]3c4ccc(B(O)O)cc4C[C@@H](CCCCCCCCC[S+]([O-])CCCC(F)(F)C(F)(F)F)[C@H]3[C@@H]1CC[C@@H]2O (stereo partly shown) [ZB716, fulvestrant-3-boronic acid]
Remaining at 120 min (mouse hepatocytes): 6.24 ± 0.58% | half-life at 1 μM ([1]; read-out: Estimated In Vitro t1/2): 34.4 ± 0.6 min | hepatocyte CLint at 1 μM ([1]; read-out: In Vitro Clint): 40.3 ± 0.7 µL/min/1e6 cells | CLint scaled at 1 μM ([1]; read-out: Scaled-Up Clint): 28.6 ± 0.48 L/h/kg | IC50 (CYP2D6): 12.5 µM | recovery at 6 h, 0.1 μM ([2]; pH 7.4, 0.1 μM): < 68.2% | recovery at 6 h, 1 μM ([2]; pH 7.4, 1 μM): < 70% | recovery at 6 h, 10 μM ([2]; pH 7.4, 10 μM): < 87.2% | Bound (monkey plasma proteins; 0.1 μM): >96.4% | Unbound (monkey plasma proteins; 0.1 μM): <3.63% | Remaining (monkey plasma proteins; 0.1 μM): 65.3 ± 2.8% | Bound (monkey plasma proteins; 1 μM): >99.6% | Unbound (monkey plasma proteins; 1 μM): <0.326% | Remaining (monkey plasma proteins; 1 μM): 70.9 ± 4.8% | Bound (monkey plasma proteins; 10 μM): >99.97% | Unbound (monkey plasma proteins; 10 μM): <0.0308% | Remaining (monkey plasma proteins; 10 μM): 93.9 ± 10.0% | half-life at 2 µM (CYP2C9; human): 18.6 ± 0.4 min | Clint (CYP2C9; recombinant CYP2C9, 2 µM ZB716): 0.746 ± 0.015 µL/min/pmol CYP

— PMC8400955 (Pharmaceuticals, 2021)
